From US10059713B2 (Takeda Pharmaceutical Company Limited, priority 2014, dated 2018)
pEC50: −log10 of the molar value.

These compounds were tested against human GPR43 (Homo sapiens (Human), UniProt O15552) (assay: Ca-Flux functional assay: determination of agonist/positive allosteric modulator (PAM) activity). Settings: CHO-K1 Gα16 cells stably expressing human GPR43; compound added with EC20 sodium acetate; intracellular Ca2+ by FLIPR; does not distinguish agonist from PAM.
Assay type: cell-based
Procedure, shortened: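 CHO-K1 Gα16 cells stably expressing human GPR43, loaded with Calcium 5 dye 1 h; compounds (10-point half-log from 10 μM) added with sodium acetate at EC20. FLIPR calcium signal gave EC50, two wells per point; agonists and PAMs not distinguished.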

Chain of human GPR43 (O15552 whole entry): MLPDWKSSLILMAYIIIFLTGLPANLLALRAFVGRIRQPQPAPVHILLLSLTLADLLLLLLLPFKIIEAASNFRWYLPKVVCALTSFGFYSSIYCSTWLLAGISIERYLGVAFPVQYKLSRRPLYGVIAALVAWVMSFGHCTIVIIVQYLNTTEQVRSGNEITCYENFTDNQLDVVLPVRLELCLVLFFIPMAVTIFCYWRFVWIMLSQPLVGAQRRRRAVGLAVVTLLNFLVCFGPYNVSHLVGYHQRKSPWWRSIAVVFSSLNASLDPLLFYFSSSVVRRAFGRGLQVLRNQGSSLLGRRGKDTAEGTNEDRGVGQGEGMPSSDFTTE

| pEC50 | SMILES |
| --- | --- |
| 7.31 | Cc1nc(OCC(C)C)c2[nH]c(N)c(S(=O)(=O)c3ccccc3)c2n1 [Example 251, 7-(benzenesulfonyl)-2-methyl-4-(2-methylpropoxy)-5H-pyrrolo[3,2-d]pyrimidin-6-amine] |
| 5.53 | Nc1[nH]c2c(OCC3CCOC3)ncnc2c1S(=O)(=O)c1ccccc1 (centres unmarked) [Example 119, 7-(benzenesulfonyl)-4-(oxolan-3-ylmethoxy)-5H-pyrrolo[3,2-d]pyrimidin-6-amine] |
| 6.94 | Cc1nc(OCC(C)(C)C)c2[nH]c(N)c(S(=O)(=O)c3ccccc3)c2n1 [Example 250, 7-(benzenesulfonyl)-4-(2,2-dimethylpropoxy)-2-methyl-5H-pyrrolo[3,2-d]pyrimidin-6-amine] |
| 8.15 | Cc1nc(N2CCOC3(CC3)C2)c2[nH]c(N)c(S(=O)(=O)c3ccccc3)c2n1 [Example 205, 7-(benzenesulfonyl)-2-methyl-4-{4-oxa-7-azaspiro[2.5]octan-7-yl}-5H-pyrrolo[3,2-d]pyrimidin-6-amine] |
| 8.40 | CC1CN(c2ncnc3c(S(=O)(=O)c4ccccc4)c(N)[nH]c23)CC(C)S1 (centres unmarked) [Example 197, 7-(benzenesulfonyl)-4-(2,6-dimethylthiomorpholin-4-yl)-5H-pyrrolo[3,2-d]pyrimidin-6-amine] |
| 6.32 | Cc1nc(OCC2CC2)c2[nH]c(N)c(S(=O)(=O)c3cccc(F)c3)c2n1 [Example 194, 4-(cyclopropylmethoxy)-7-(3-fluorobenzenesulfonyl)-2-methyl-5H-pyrrolo[3,2-d]pyrimidin-6-amine] |
| 7.14 | Nc1[nH]c2c(OCC3CCCCC3)ncnc2c1S(=O)(=O)c1ccccc1 [Example 165, 7-(benzenesulfonyl)-4-(cyclohexylmethoxy)-5H-pyrrolo[3,2-d]pyrimidin-6-amine] |
| 7.66 | Cc1nc(OC(C)C2CC2)c2[nH]c(N)c(S(=O)(=O)c3ccccc3)c2n1 (centres unmarked) [Example 230, 7-(benzenesulfonyl)-4-(1-cyclopropylethoxy)-2-methyl-5H-pyrrolo[3,2-d]pyrimidin-6-amine] |
| 7.74 | Cc1nc(OC(C)C2CCC2)c2[nH]c(N)c(S(=O)(=O)c3ccccc3)c2n1 (centres unmarked) [Example 256, 7-(benzenesulfonyl)-4-(1-cyclobutylethoxy)-2-methyl-5H-pyrrolo[3,2-d]pyrimidin-6-amine] |
| 7.28 | C[C@@H]1CN(c2ncnc3c(S(=O)(=O)c4ccccc4)c(N)[nH]c23)CCO1 [Example 137, 7-(benzenesulfonyl)-4-[(2R)-2-methylmorpholin-4-yl]-5H-pyrrolo[3,2-d]pyrimidin-6-amine] |
| 7.21 | CCN(CC)c1ncnc2c(S(=O)(=O)c3ccccc3)c(N)[nH]c12 [Example 94, 7-(benzenesulfonyl)-4-N,4-N-diethyl-5H-pyrrolo[3,2-d]pyrimidine-4,6-diamine] |
| 6.48 | Nc1[nH]c2c(C3CCC(F)(F)CC3)ncnc2c1S(=O)(=O)c1ccccc1 [Example 155, 7-(benzenesulfonyl)-4-(4,4-difluorocyclohexyl)-5H-pyrrolo[3,2-d]pyrimidin-6-amine] |
| 6.12 | Nc1[nH]c2c(NCC3CC3)ncnc2c1S(=O)(=O)c1ccccc1 [Example 70, 7-(benzenesulfonyl)-4-N-(cyclopropylmethyl)-5H-pyrrolo[3,2-d]pyrimidine-4,6-diamine] |
| 7.37 | CC1CN(c2ncnc3c(S(=O)(=O)c4ccccc4)c(N)[nH]c23)CCO1 (centres unmarked) [Example 52, 7-(benzenesulfonyl)-4-(2-methylmorpholin-4-yl)-5H-pyrrolo[3,2-d]pyrimidin-6-amine] |

Second part, the compound before the results:

| SMILES | pEC50 |
| --- | --- |
| CC1CN(c2ncnc3c(S(=O)(=O)CCc4ccccc4)c(N)[nH]c23)CCO1 (centres unmarked) [Example 153, 4-(2-methylmorpholin-4-yl)-7-(2-phenylethanesulfonyl)-5H-pyrrolo[3,2-d]pyrimidin-6-amine] | 6.09 |
| Nc1[nH]c2c(-c3ccccc3)ncnc2c1S(=O)(=O)c1ccccc1 [Example 9, 7-(benzenesulfonyl)-4-phenyl-5H-pyrrolo[3,2-d]pyrimidin-6-amine] | 7.32 |
| Nc1[nH]c2c(C3=CCCCC3)ncnc2c1S(=O)(=O)c1ccc(OC(F)F)cc1 [Example 33, 4-(cyclohex-1-en-1-yl)-7-{[4-(difluoromethoxy)benzene]sulfonyl}-5H-pyrrolo[3,2-d]pyrimidin-6-amine] | 7.28 |
| CC1CN(c2ncnc3c(Sc4ccccc4)c(N)[nH]c23)CCO1 (centres unmarked) [Example 236, 4-(2-methylmorpholin-4-yl)-7-(phenylsulfanyl)-5H-pyrrolo[3,2-d]pyrimidin-6-amine] | 7.38 |
| CCN(Cc1cnn(C)c1)c1ncnc2c(S(=O)(=O)c3ccccc3)c(N)[nH]c12 [Example 64, 7-(benzenesulfonyl)-4-N-ethyl-4-N-[(1-methyl-1H-pyrazol-4-yl)methyl]-5H-pyrrolo[3,2-d]pyrimidine-4,6-diamine] | 5.63 |
| Nc1[nH]c2c(C3=CCCCC3)ncnc2c1S(=O)(=O)CC1CCOCC1 [Example 109, 4-(cyclohex-1-en-1-yl)-7-(oxan-4-ylmethanesulfonyl)-5H-pyrrolo[3,2-d]pyrimidin-6-amine] | 5.30 |
| CCN(CC1CCCCC1)c1ncnc2c(S(=O)(=O)c3ccccc3)c(N)[nH]c12 [Example 83, 7-(benzenesulfonyl)-4-N-(cyclohexylmethyl)-4-N-ethyl-5H-pyrrolo[3,2-d]pyrimidine-4,6-diamine] | 7.00 |
| Cc1nc(N2CCO[C@@H](C(F)(F)F)C2)c2[nH]c(N)c(S(=O)(=O)c3c(F)cccc3F)c2n1 [Example 295, 7-(2,6-difluorobenzenesulfonyl)-2-methyl-4-[(2R)-2-(trifluoromethyl)morpholin-4-yl]-5H-pyrrolo[3,2-d]pyrimidin-6-amine] | 8.52 |
| Nc1[nH]c2c(C3CCCCC3)ncnc2c1S(=O)(=O)c1ccc(F)c(F)c1 [Example 60, 4-cyclohexyl-7-(3,4-difluorobenzenesulfonyl)-5H-pyrrolo[3,2-d]pyrimidin-6-amine] | 6.74 |
| Cc1nc(N2CCOC(C(F)(F)F)C2)c2[nH]c(N)c(S(=O)(=O)c3ccccc3F)c2n1 (centres unmarked) [Example 231, 7-(2-fluorobenzenesulfonyl)-2-methyl-4-[2-(trifluoromethyl)morpholin-4-yl]-5H-pyrrolo[3,2-d]pyrimidin-6-amine] | 8.70 |
| CC1CN(c2ncnc3c(S(=O)(=O)c4ccc(C(F)(F)F)cc4)c(N)[nH]c23)CCO1 (centres unmarked) [Example 136, 4-(2-methylmorpholin-4-yl)-7-[4-(trifluoromethyl)benzenesulfonyl]-5H-pyrrolo[3,2-d]pyrimidin-6-amine] | 6.93 |
| Cc1nc(N2CCOC(C)(C)C2)c2[nH]c(N)c(S(=O)(=O)c3cccc(F)c3F)c2n1 [Example 280, 7-(2,3-difluorobenzenesulfonyl)-4-(2,2-dimethylmorpholin-4-yl)-2-methyl-5H-pyrrolo[3,2-d]pyrimidin-6-amine] | 8.52 |
| COc1ccc(S(=O)(=O)c2c(N)[nH]c3c(C4CCCC4)ncnc23)cc1 [Example 73, 4-cyclopentyl-7-(4-methoxybenzenesulfonyl)-5H-pyrrolo[3,2-d]pyrimidin-6-amine] | 6.93 |
| Cc1nc(N2CCO[C@H](C(F)(F)F)C2)c2[nH]c(N)c(S(=O)(=O)c3c(F)cccc3F)c2n1 [Example 294, 7-(2,6-Difluorobenzenesulfonyl)-2-methyl-4-[(2S)-2-(trifluoromethyl)morpholin-4-yl]-5H-pyrrolo[3,2-d]pyrimidin-6-amine] | 8.40 |
| Cc1nc(N2C[C@@H](C)O[C@@H](C)C2)c2[nH]c(N)c(S(=O)(=O)c3ccccc3F)c2n1 [Example 187, 4-[(2R,6S)-2,6-dimethylmorpholin-4-yl]-7-(2-fluorobenzenesulfonyl)-2-methyl-5H-pyrrolo[3,2-d]pyrimidin-6-amine] | 8.30 |
| Cc1nc(N2CCOC(C)(C)C2C)c2[nH]c(N)c(S(=O)(=O)c3ccccc3F)c2n1 (centres unmarked) [Example 8, 7-(2-fluorobenzenesulfonyl)-2-methyl-4-(2,2,3-trimethylmorpholin-4-yl)-5H-pyrrolo[3,2-d]pyrimidin-6-amine] | 8.52 |
| Cc1nc(N2CCOC(C)(C)C2)c2[nH]c(N)c(S(=O)(=O)c3ccccc3F)c2n1 [Example 185, 4-(2,2-dimethylmorpholin-4-yl)-7-(2-fluorobenzenesulfonyl)-2-methyl-5H-pyrrolo[3,2-d]pyrimidin-6-amine] | 8.22 |
| Nc1[nH]c2c(OC3CCC3)ncnc2c1S(=O)(=O)c1ccccc1 [Example 167, 7-(benzenesulfonyl)-4-cyclobutoxy-5H-pyrrolo[3,2-d]pyrimidin-6-amine] | 7.12 |
| COc1ccc(S(=O)(=O)c2c(N)[nH]c3c(N4CCOC(C)C4)ncnc23)cc1F (centres unmarked) [Example 124, 7-(3-fluoro-4-methoxybenzenesulfonyl)-4-(2-methylmorpholin-4-yl)-5H-pyrrolo[3,2-d]pyrimidin-6-amine] | 7.20 |
| Nc1[nH]c2cc(Cl)cnc2c1S(=O)(=O)c1ccccc1 [Example 10, 3-(benzenesulfonyl)-6-chloro-1H-pyrrolo[3,2-b]pyridin-2-amine] | 6.20 |
| Cc1nc(N2CCO[C@H](C(F)(F)F)C2)c2[nH]c(N)c(S(=O)(=O)c3ccccc3F)c2n1 [Example 281, 7-(2-fluorobenzenesulfonyl)-2-methyl-4-[(2S)-2-(trifluoromethyl)morpholin-4-yl]-5H-pyrrolo[3,2-d]pyrimidin-6-amine] | 9.00 |
| CC1CN(c2ncnc3c(S(=O)(=O)c4ccc(Cl)c(F)c4)c(N)[nH]c23)CCO1 (centres unmarked) [Example 143, 7-(4-chloro-3-fluorobenzenesulfonyl)-4-(2-methylmorpholin-4-yl)-5H-pyrrolo[3,2-d]pyrimidin-6-amine] | 7.46 |
| Cc1ccccc1S(=O)(=O)c1c(N)[nH]c2c(N3CCOC(C)C3)ncnc12 (centres unmarked) [Example 120, 7-(2-methylbenzenesulfonyl)-4-(2-methylmorpholin-4-yl)-5H-pyrrolo[3,2-d]pyrimidin-6-amine] | 6.88 |
| CSc1nc(N2CCOC(C(F)(F)F)C2)c2[nH]c(N)c(S(=O)(=O)c3ccccc3F)c2n1 (centres unmarked) [Example 301, 7-(2-fluorobenzenesulfonyl)-2-(methylsulfanyl)-4-[2-(trifluoromethyl)morpholin-4-yl]-5H-pyrrolo[3,2-d]pyrimidin-6-amine] | 7.85 |
